One assay relates to 1 a replicon. Nature of the assay: HCV replicon luciferase reporter assay, 384 plate protocol, 1a replicon. It is filed as cell-based. As to conditions: Hepatitis C virus; Table 1; *384 plate protocol and a 1 a replicon. The method, then: The HCV replicon luciferase assay was developed to monitor the inhibitory effects of compounds described in the disclosure on HCV viral replication. Utilization of a replicon luciferase reporter assay was first described by Krieger et al (Krieger N, Lohmann V, and Bartenschlager R, J. Virol. 75(10):4614-4624 (2001)). HUH-7 cells, constitutively expressing the HCV replicon, were grown in Dulbecco's Modified Eagle Media (DMEM) (Gibco-BRL) containing 10% Fetal calf serum (FCS) (Sigma) and 1 mg/ml G418 (Gibco-BRL). Compounds were serially diluted 3 folds in DMSO for a twenty-point titration and subsequently transferred to sterile 384-well tissue-culture treated plates (Corning cat #3571). The plates were then seeded with 50 μl of cells at a density of 3.0×10^3 cells/well in DMEM containing 4% FCS (final DMSO concentration at 0.5%). After 3 days incubation at 37° C., cells were analyzed for Renilla Luciferase activity using the EnduRen as substrate (Promega cat #E6485). The EnduRen substrate was diluted in DMEM and then added to the plates to a final concentration of 7.5 μM. The plates were incubated for 2 hrs at 37° C. and then read immediately for 30 seconds with Viewlux Imager (PerkinElmer) using a luminescence program. […] The fluorescence signal from each well was read, with an excitation wavelength at 525/10 nm and an emission wavelength of 598/10 nm, using the Viewlux Imager.

Assay [1] deals with HCV replicon in HUH-7 cells. The experiment in a line: HCV replicon luciferase reporter assay, 384 well plate protocol. The settings on record: Hepatitis C virus, Table 2. It is filed as cell-based. The method, then:
The HCV replicon luciferase assay was developed to monitor the inhibitory effects of compounds described in the disclosure on HCV viral replication. Utilization of a replicon luciferase reporter assay was first described by Krieger et al (Krieger N, Lohmann V, and Bartenschlager R, J. Virol. 75(10):4614-4624 (2001)). HUH-7 cells, constitutively expressing the HCV replicon, were grown in Dulbecco's Modified Eagle Media (DMEM) (Gibco-BRL) containing 10% Fetal calf serum (FCS) (Sigma) and 1 mg/ml G418 (Gibco-BRL). Compounds were serially diluted 3 folds in DMSO for a twenty-point titration and subsequently transferred to sterile 384-well tissue-culture treated plates (Corning cat #3571). The plates were then seeded with 50 μl of cells at a density of 3.0×10^3 cells/well in DMEM containing 4% FCS (final DMSO concentration at 0.5%). After 3 days incubation at 37° C., cells were analyzed for Renilla Luciferase activity using the EnduRen as substrate (Promega cat #E6485). The EnduRen substrate was diluted in DMEM and then added to the plates to a final concentration of 7.5 μM. The plates were incubated for 2 hrs at 37° C. and then read immediately for 30 seconds with Viewlux Imager (PerkinElmer) using a luminescence program. To assess cytotoxicity of compounds, CC50 values were generated by multiplexing the EnduRen-containing plates with Cell Titer-Blue (Promega, cat #G8082). 3 μl of Cell-Titer Blue was added to each well and incubated for 8 hrs at 37° C. The fluorescence signal from each well was read, with an excitation wavelength at 525/10 nm and an emission wavelength of 598/10 nm, using the Viewlux Imager.
(Replicon systems follow genome replication, usually without infectious particles.)

In another assay the test system is HCV. The settings on record: cited from earlier work.
The target in assay [2] is T1, HCV NS5B RdRp genotype 1b (Hepatitis C virus genotype 1b, UniProt Q9WMX2).
T1 construct: The protein was expressed with an 18 amino acid C-terminal truncation to enhance the solubility; made in house; host or cells: E. coli BL21(DE3), pET21a vector
T1 sequence (Q9WMX2 2420-2992): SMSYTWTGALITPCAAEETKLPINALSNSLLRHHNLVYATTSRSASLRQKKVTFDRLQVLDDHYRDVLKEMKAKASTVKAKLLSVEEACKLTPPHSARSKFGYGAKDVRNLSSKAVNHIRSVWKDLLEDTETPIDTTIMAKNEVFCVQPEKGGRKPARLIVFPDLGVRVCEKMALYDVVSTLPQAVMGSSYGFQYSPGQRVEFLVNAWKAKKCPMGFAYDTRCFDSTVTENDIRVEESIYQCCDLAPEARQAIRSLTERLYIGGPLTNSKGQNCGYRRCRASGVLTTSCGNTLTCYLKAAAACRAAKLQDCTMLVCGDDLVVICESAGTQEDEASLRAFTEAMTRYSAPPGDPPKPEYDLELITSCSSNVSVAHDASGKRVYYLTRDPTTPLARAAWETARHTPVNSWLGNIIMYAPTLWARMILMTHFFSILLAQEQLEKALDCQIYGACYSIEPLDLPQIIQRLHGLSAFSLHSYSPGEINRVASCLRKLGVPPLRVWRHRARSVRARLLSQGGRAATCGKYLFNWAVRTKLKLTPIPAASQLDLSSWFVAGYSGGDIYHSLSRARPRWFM
The experiment in a line: HCV NS5B RdRp enzyme assay (standard / modified). It is filed as biochemical. The settings on record: Table 2; HCV NS5B genotype 1b. The essentials:
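Genotype 1b NS5B with an 18-aa C-terminal truncation, expressed in E. coli, was tested by SPA incorporation of 3H-UTP (0.29 μM) on polyA/biotin-oligo-dT12. Standard assay: 28 nM enzyme, 6 nM template, 180 nM primer, 60 min at 30 °C, pH 7.5, 2% DMSO. Modified assay: 14 nM enzyme added to compound first, 0.2 nM template, 20 nM bead-precaptured primer, 4 h at 30 °C. IC50 used seven inhibitor concentrations.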

Take `CNC(=O)c1c(-c2ccc(F)cc2)nc2ccc(-c3ccc(-c4ccccc4Cl)c(C(=O)NCC(C)C)c3)cn12` [drawing 163]: in the assay on 1 a replicon, the EC50 lay in the range of 250 to 1000 nM.

`CNC(=O)c1c(-c2ccc(F)cc2)oc2ncc(-c3cc(C(=O)NC4(c5ccccn5)CC4)ccc3Cl)cc12` [drawing 187] gave an EC50 in assay [1] of 1.5 nM.

On to pegylated alpha-interferon, for which the “clinical efficacy compared with unmodified alpha-interferon” value in the assay on HCV (monotherapy) is “superior to unmodified alpha-interferon as monotherapy”.

For the compound `CNC(=O)c1c(-c2ccc(F)cc2)oc2ncc(-c3cc(C(=O)NC4(c5ccccn5)CC4)ccc3C)cc12` [drawing 186], half-maximal inhibition in assay [2] (IC50) required 4.65 nM. Moreover, in assay [1], a half-maximal response (EC50) required 2.04 nM.

As for `CNC(=O)c1c(-c2ccc(F)cc2)nn2ccc(-c3cc(C(=O)NC4(c5ccccc5)CC4)ccc3C)c(F)c12` [drawing 185], the EC50 in assay [1] turned out to be 0.85 nM.

With alpha-interferon and ribavirin, in the assay with HCV (combination therapy), the sustained efficacy is on record as 40 % of patients.

`CNC(=O)c1c(-c2ccc(F)cc2)nc2ccc(-c3cc(C(=O)NC4(c5ccccn5)CC4)c(OC)cc3Cl)cn12` [drawing 164] returned an EC50 with 1 a replicon of 2 to 250 nM.

As usually defined, the EC50 is the midpoint of the concentration-response curve. Low values mean greater potency, high ones weaker potency. A word on the IC50: it is the concentration that gives 50% inhibition. A high value points to lower potency.

Values taken from US8293909B2, “Compounds for the treatment of hepatitis C” (Bristol-Myers Squibb Company, priority 2008, dated 2012).
